Molecules are shown by their SMILES. In brackets after ≈: the same amount, converted by molar mass. Read-outs that look alike come from different tables or passages of the source. Non-standard residues stand in square brackets, D forms with d. Residues, ends and D or L forms follow the SMILES beside them. ξ: configuration not given here. *: point of attachment. X2 = CCCCCCCCCCCCCCCC(=O)OCC(COC(=O)CCC(=O)*)OC(=O)CCCCCCCCCCCCCCC; X1 = CCCCCCCCCCCCCCCC(=O)OCC(C*)OC(=O)CCCCCCCCCCCCCCC; Palmitoyl = CCCCCCCCCCCCCCCC(=O)*; ξK = NCCCCC(N)C(=O)O; ξC = NC(CS)C(=O)O

The subject of one experiment is E. coli. As to the kind of experiment: Antibiogram of ESKAPE pathogens. The class given is cell-based. Particulars: Escherichia coli, column assigned by order in flattened table. The source says:
(§1) Supplementary Table 1. Antibiogram of ESKAPE pathogens used in this study.
(§2) Bacteria susceptible to all (blue color) or intermediate/resistant to at least one (red color) of antibiotics per class following the EUCAST breakpoints. Black color is shown if the susceptibility to agents in that class is not assessed. Values are minimal inhibition concentrations (MIC) in µg/ml or for Chloramphenicol in diameter (mm). […]

In another experiment the test system is ESKAPE pathogens. As to the kind of experiment: organism not typed.
Excerpt: as §1, §2

Another experiment relates to E. faecium. As to the kind of experiment: microbe, parasite or virus in culture. The settings on record: for MIC: Enterococcus faecium.
Excerpt: as §1, §2

Experiment [1] has as its system multidrug resistant bacteria belonging to the ESKAPE pathogen panel. Type of experiment: cell-based. Particulars: broth microdilution, ESKAPE panel. Here is the method:
Bactericidal activity was assessed by broth microdilution assay. […] After incubation, 100 µl of 6% TSB (w/v) were added and absorbance was measured at 600 nm (Tecan, Switzerland) and monitored for 18 h. Afterward, 100 µl per well were plated on LB agar to determine the numbers of viable bacteria microbiologically. Bactericidal activity is expressed as the LC99.9, the lowest concentration that killed ≥99.9 % of bacteria.
In general terms: Dilution methods test growth across graded concentrations, often in twofold steps.

Experiment [2] relates to several pathogenic bacteria. As to the kind of experiment: Radial diffusion assay, all tested strains. The class given is cell-based. Here is the method:
Antimicrobial activity was analyzed by radial diffusion assay. Log-phase bacteria were cultivated for up to 18 h in TSB (TSB, Becton Dickinson, USA), washed and diluted to 4 × 10^6 CFU in 10 ml agar. Bacteria were incubated in 10 ml of 10 mM sodium phosphate, pH 7.4, containing 0.3 mg/ml of TSB powder and 1% (w/v) low EEO-agarose (AppliChem). 1 µg of each lipopeptide was pipetted into punched wells in a final volume of 4 µl and diffused into the gel for 3 h at 37 °C. After that, a nutrient-rich gel with 6% TSB (w/v) and 1% agarose in 10 mM sodium phosphate buffer was poured on top of the first gel and incubated for up to 24 h at 37 °C. Then the diameter of inhibition zones was measured.

The next experiment has as its system S. aureus ATCC 25923. Type of experiment: cell-based. Particulars: for Fold change in MIC: relative to MIC of first passage, Mean. Here is the method: Development of resistance to the peptides was assessed with S. aureus and S. Typhimurium. […] Bacteria were cultured overnight at 37 °C at 150 rpm in TSB. Bacteria were washed twice with 10 mM sodium phosphate buffer containing 1% (w/v) TSB. […] After incubation, 100 µl of 6% TSB (w/v) was added and plates incubated in a humidified atmosphere for 21 h at 37 °C and 150 rpm.
The MIC, the lowest concentration of peptide/antibiotic that caused a lack of visible bacterial growth, was determined for each bacterial species. […] This was repeated for 25 passages.

The next experiment has as its system S. aureus. As to the kind of experiment: Antibiogram of ESKAPE pathogens. Type of experiment: cell-based. Particulars: Staphylococcus aureus.
Excerpt: as §1, §2

Take `CC1(C)S[C@@H]2[C@H](NC(=O)[C@H](N)c3ccccc3)C(=O)N2[C@H]1C(=O)O` [Ampicillin]: the MIC in the experiment on E. coli (strain DSM682) was at least 32 µg/mL; with E. coli (strain DSM8695) it was 8 µg/mL (≈ 22.9 µM).
For the molecule `C[C@H]1[C@H](NC(=O)/C(=N\OC(C)(C)C(=O)O)c2csc(N)n2)C(=O)N1S(=O)(=O)O` [Aztreonam], the MIC with ESKAPE pathogens (read-out: MIC (antibiogram)) was over 256 µg/mL.
Molecule `CO/N=C(\C(=O)N[C@@H]1C(=O)N2C(C(=O)O)=C(COC(N)=O)CS[C@H]12)c1ccco1` [Cefuroxim] yielded an MIC against E. coli (strain DSM682) of at least 64 µg/mL.
In the case of `O=C(N[C@H](CO)[C@H](O)c1ccc([N+](=O)[O-])cc1)C(Cl)Cl` [Chloramphenicol], in the experiment with ESKAPE pathogens (one strain of E. faecium, S. aureus or K. pneumoniae, not assignable), the “diameter (antibiogram)” value is on record as 22 mm.
For the molecule `CCCCCCCCCC(=O)N[C@@H](Cc1c[nH]c2ccccc12)C(=O)N[C@H](CC(N)=O)C(=O)N[C@@H](CC(=O)O)C(=O)N[C@@H]1C(=O)NCC(=O)N[C@@H](CCCN)C(=O)N[C@@H](CC(=O)O)C(=O)N[C@H](C)C(=O)N[C@@H](CC(=O)O)C(=O)NCC(=O)N[C@H](CO)C(=O)N[C@@H]([C@H](C)CC(=O)O)C(=O)N[C@@H](CC(=O)c2ccccc2N)C(=O)O[C@@H]1C` [Daptomycin], the “MIC (antibiogram)” value against E. faecium was 4 µg/mL (≈ 2.47 µM).
In the experiment with E. coli (strain DSM8695), `CNC(C)C1CCC(N)C(OC2C(N)CC(N)C(OC3OCC(C)(O)C(NC)C3O)C2O)O1` (stereo not shown) [Gentamicin] displayed an MIC of at most 1 µg/mL.
With `C[C@@H](O)[C@H]1C(=O)N2C(C(=O)O)=C(SCCN=CN)C[C@H]12` [Imipenem], the MIC in the experiment with E. coli (strain DSM682) is 2 µg/mL (≈ 6.68 µM); in the experiment on E. coli (strain DSM8695), at most 0.25 µg/mL.
Taken in the same sequence, the figures for `C[C@@H](O)[C@H]1C(=O)N2C(C(=O)O)=C(S[C@@H]3CN[C@H](C(=O)N(C)C)C3)[C@H](C)[C@H]12` [Meropenem] were 8 µg/mL (≈ 20.9 µM) and at most 0.25 µg/mL.
For the molecule `CCCCCCCCCCCCCCCC(=O)OCC(COC(=O)CCC(=O)N[C@@H](CCCNC(=N)N)C(=O)NCC(=O)N[C@@H](CCCCN)C(=O)N[C@@H](C)C(=O)N[C@@H](CCCCN)C(=O)N[C@@H](CS)C(=O)N[C@@H](CS)C(=O)N[C@@H](CCCCN)C(=O)O)OC(=O)CCCCCCCCCCCCCCC` (stereo partly shown) [Pam-1] (X2-RGKAKCCK-OH; C-terminus assumed), the “bactericidal activity (in words)” value in experiment [1] is recorded as “no or low bactericidal activity”. Moreover, the “antimicrobial activity (in words)” value in experiment [2] was “generally inactive”.
Taken in the same sequence, the figures for `CCCCCCCCCCCCCCCC(=O)NC(CSCC(COC(=O)CCCCCCCCCCCCCCC)OC(=O)CCCCCCCCCCCCCCC)C(=O)N[C@@H](CCCNC(=N)N)C(=O)NCC(=O)N[C@@H](CCCCN)C(=O)N[C@@H](C)C(=O)N[C@@H](CCCCN)C(=O)N[C@@H](CS)C(=O)N[C@@H](CS)C(=O)N[C@@H](CCCCN)C(=O)O` (stereo partly shown) [Pam-4] (Palmitoyl-[ξC](X1)RGKAKCCK-OH; C-terminus assumed) were “no or low bactericidal activity” and “generally inactive”.
For `CCCCCCCCCCCCCCCC(=O)NCCCCC(NC(=O)CCCCCCCCCCCCCCC)C(=O)N[C@@H](CCCNC(=N)N)C(=O)NCC(=O)N[C@@H](CCCCN)C(=O)N[C@@H](C)C(=O)N[C@@H](CCCCN)C(=O)N[C@@H](CS)C(=O)N[C@@H](CS)C(=O)N[C@@H](CCCCN)C(=O)O` (stereo partly shown) [Pam-5] (Palmitoyl-[ξK](Palmitoyl)RGKAKCCK-OH; C-terminus assumed), in that order: “moderate effects” and “generally inactive”.
For the molecule `CCN1CCN(C(=O)N[C@@H](C(=O)N[C@@H]2C(=O)N3[C@@H]2SC(C)(C)[C@@H]3C(=O)O)c2ccccc2)C(=O)C1=O` [Piperacillin], in the experiment on E. coli (strain DSM8695), the MIC is at most 4 µg/mL.
Regarding `CO[C@H]1/C=C/O[C@@]2(C)Oc3c(C)c(O)c4c(O)c(c(/C=N/N5CCN(C)CC5)c(O)c4c3C2=O)NC(=O)/C(C)=C\C=C\[C@H](C)[C@H](O)[C@@H](C)[C@@H](O)[C@@H](C)[C@H](OC(C)=O)[C@@H]1C` [Rifampicin, reference compound], the “Fold change in MIC” value in the experiment with S. aureus ATCC 25923 (Day (passage) 0) is 1.0; with S. aureus ATCC 25923 (Day (passage) 1) it was 0.8; in the experiment with S. aureus ATCC 25923 (Day (passage) 2), 1.0; in the experiment with S. aureus ATCC 25923 (Day (passage) 3), 1.0; in the experiment with S. aureus ATCC 25923 (Day (passage) 4) it was 1.7; in the experiment with S. aureus ATCC 25923 (Day (passage) 5), 3.7. In addition, the “Fold change in MIC” value was determined as 43.3 in the experiment with S. aureus ATCC 25923 (Day (passage) 6); 87.3 in the experiment on S. aureus ATCC 25923 (Day (passage) 7); 163.3 in the experiment with S. aureus ATCC 25923 (Day (passage) 8); 348.0 in the experiment with S. aureus ATCC 25923 (Day (passage) 9); 768.7 with S. aureus ATCC 25923 (Day (passage) 10); 1366.0 in the experiment on S. aureus ATCC 25923 (Day (passage) 11). Besides, the “Fold change in MIC” value in the experiment with S. aureus ATCC 25923 (Day (passage) 12) is 2731.4; in the experiment with S. aureus ATCC 25923 (Day (passage) 13), 2732.0; in the experiment on S. aureus ATCC 25923 (Day (passage) 14) it was 3200.7; in the experiment on S. aureus ATCC 25923 (Day (passage) 15), 4267.4; in the experiment with S. aureus ATCC 25923 (Day (passage) 16), 4267.4; in the experiment on S. aureus ATCC 25923 (Day (passage) 17), 4268.0. Also, the “Fold change in MIC” value with S. aureus ATCC 25923 (Day (passage) 18) is 4267.4; with S. aureus ATCC 25923 (Day (passage) 19), 2733.4; with S. aureus ATCC 25923 (Day (passage) 20) it was 2731.5; in the experiment with S. aureus ATCC 25923 (Day (passage) 21), 2731.4; in the experiment with S. aureus ATCC 25923 (Day (passage) 22), 2731.4; in the experiment on S. aureus ATCC 25923 (Day (passage) 23) it was 2733.4. Also, the “Fold change in MIC” value amounted to 2741.4 with S. aureus ATCC 25923 (Day (passage) 24) and 2816.0 in the experiment on S. aureus ATCC 25923 (Day (passage) 25). Also, in the experiment on S. aureus ATCC 25923 (after 15 passages), the “increase of MIC” value was at least 4096 fold.
On to `CN(C)[C@@H]1C(=O)C(C(N)=O)=C(O)[C@@]2(O)C(=O)C3=C(O)c4c(O)cccc4[C@@](C)(O)[C@H]3C[C@@H]12` [Tetracyclin], for which the “MIC (antibiogram)” value with ESKAPE pathogens (one strain of A. baumannii, P. aeruginosa or E. coli, not assignable) is at least 256 µg/mL.
`NC[C@H]1O[C@H](O[C@H]2[C@H](O)[C@@H](O[C@H]3O[C@H](CO)[C@@H](O)[C@H](N)[C@H]3O)[C@H](N)C[C@@H]2N)[C@H](N)C[C@@H]1O` [Tobramycin] returned an MIC against E. coli (strain DSM8695) of at most 1 µg/mL.
Turning to `CN[C@H](CC(C)C)C(=O)N[C@H]1C(=O)N[C@@H](CC(N)=O)C(=O)N[C@H]2C(=O)N[C@H]3C(=O)N[C@H](C(=O)N[C@H](C(=O)O)c4cc(O)cc(O)c4-c4cc3ccc4O)[C@H](O)c3ccc(c(Cl)c3)Oc3cc2cc(c3O[C@@H]2O[C@H](CO)[C@@H](O)[C@H](O)[C@H]2O[C@H]2C[C@](C)(N)[C@H](O)[C@H](C)O2)Oc2ccc(cc2Cl)[C@H]1O` [Vancomycin], the MIC is at least 32 µg/mL with E. faecium (DSM2918, read-out: MIC (antibiogram)); at least 32 µg/mL with E. faecium (read-out: MIC (antibiogram)); 1 µg/mL (≈ 0.69 µM) with S. aureus (ATCC33592, read-out: MIC (antibiogram)); 1 µg/mL (≈ 0.69 µM) in the experiment on S. aureus (ATCC43300, read-out: MIC (antibiogram)); 1 µg/mL (≈ 0.69 µM) in the experiment with S. aureus (DSM20231, read-out: MIC (antibiogram)).

The record behind these values is paper PMC7794397, “Curbing gastrointestinal infections by defensin fragment modifications without harming commensal microbiota” (Communications Biology, 2021).
